Values of other authors, collected in the PKSmart pharmacokinetics tables (Seal et al. 2025).

What was measured:
[1] = Lombardo et al. 2013, J Clin Pharmacol 53:178, doi 10.1177/0091270012440282; conditions: for Vd / clearance: in vivo, iv; for fraction unbound: plasma
[2] = Lombardo, Berellini, Obach 2018, Drug Metab Dispos 46:1466, doi 10.1124/dmd.118.082966; conditions: human; for MRT / Vd / clearance / half-life: in vivo, iv; for fraction unbound: plasma

| Compound | Vd ([1]; dog) [L/kg] | clearance ([1]; dog) [mL/min/kg] | fraction unbound ([1]; dog) | Vd ([1]; monkey) [L/kg] | clearance ([1]; monkey) [mL/min/kg] | fraction unbound ([1]; monkey) | Vd ([1]; rat) [L/kg] | clearance ([1]; rat) [mL/min/kg] | fraction unbound ([1]; rat) | MRT [2] [h] | Vd [2] [L/kg] | clearance [2] [mL/min/kg] | half-life [2] [h] | fraction unbound [2] |
| --- | --- | --- | --- | --- | --- | --- | --- | --- | --- | --- | --- | --- | --- | --- |
| C[C@@H](O)C1C(=O)N2C(C(=O)O)=C(COC(N)=O)S[C@H]12 (stereo not given in full) | 0.22 | 7.4 | 0.95 | 0.14 | 4.65 | 0.56 | 0.05 | 15.5 | 0.5 | 0.54 | 0.24 | 7.55 | 0.54 | 0.72 |
| CN(C)CCCN1c2ccccc2CCc2ccc(Cl)cc21 | 3.7 | 23.3 | 0.01 | – | – | – | – | – | – | 26 | 13 | 8.2 | – | – |
| CN1CCN(C2=Nc3cc(Cl)ccc3Nc3ccccc32)CC1 | – | – | – | – | – | – | 8.68 | – | – | 11 | 1.6 | – | 10 | – |
| NC12CC3CC(CC(C3)C1)C2 | – | – | – | – | – | – | 6.4 | 19 | 0.52 | 23 | 6.6 | 4.8 | 16 | – |
| C[C@@H](O)C1C(=O)N2C(C(=O)[O-])=C(SC3Cn4cnc[n+]4C3)[C@H](C)[C@H]12 (stereo not given in full) | 0.21 | 4.7 | 0.94 | 0.25 | 5.5 | – | 0.19 | 13 | 0.96 | 1.3 | 0.2 | 2.5 | 1.1 | 0.92 |
| CCN(CC)CCNC(=O)c1cc(Cl)c(N)cc1OC | 1.1 | 23.1 | – | – | – | – | 3.3 | 48 | 0.426 | 9.4 | 3.2 | 5.7 | 7.2 | – |
| N[C@@H](CC(=O)N1CCn2c(nnc2C(F)(F)F)C1)Cc1cc(F)c(F)cc1F | 3.3 | 9.1 | 0.556 | – | – | – | 8.1 | 45 | 0.68 | 7.8 | 2.8 | 6 | 12 | – |
| CN1C(=O)NC(=O)C(C)(C2=CCCCC2)C1=O (stereo not given) | – | – | – | – | – | – | 2.5 | 40.6 | – | 5.4 | 1.1 | 3.4 | 4.9 | 0.53 |
| C[C@]12C=CC(=O)C=C1CC[C@@H]1[C@@H]2[C@@H](O)C[C@@]2(C)[C@H]1CC[C@]2(O)C(=O)CO | – | – | – | – | – | – | 1.74 | 98.7 | 0.32 | – | – | – | – | 0.25 |
| Nc1ncnc2c1ncn2CCOCP(=O)(O)O | 1.3 | 5.3 | – | 0.81 | 16 | – | 1.6 | 22 | – | 1.9 | 0.42 | 3.7 | 1.6 | – |
| CC(C)N(CCC(C(N)=O)(c1ccccc1)c1ccccn1)C(C)C (stereo not given) | 1.27 | 9.87 | – | – | – | – | – | 34 | – | 9.6 | 0.52 | 0.9 | 7 | 0.16 |
| CON=C(C(=O)NC1C(=O)N2C(C(=O)[O-])=C(C[n+]3ccc(N)n3CCO)CS[C@H]12)c1csc(N)n1 (stereo not given in full) | 0.39 | 3.5 | – | 0.28 | 1.9 | – | 0.2 | 9.6 | – | 2.78 | 0.3 | 1.77 | 2.9 | – |
| CON=C(C(=O)NC1C(=O)N2C(C(=O)O)=CCS[C@H]12)c1csc(N)n1 (stereo not given in full) | 0.27 | 3.25 | 0.83 | 0.29 | 5.93 | 0.662 | 0.54 | 19.3 | 0.7 | 1.6 | 0.2 | 2.1 | 1.5 | 0.72 |
| CN(C)CCc1c[nH]c2ccc(Cn3cncn3)cc12 | 2.5 | 40 | – | – | – | – | – | 79 | – | 2 | 1.9 | 16 | 2.2 | – |
| Cn1c(=O)c2c(ncn2C)n(C)c1=O | 0.76 | 2.35 | – | 0.83 | 3.06 | – | 0.92 | 12.5 | – | 7.5 | 0.63 | 1.4 | 4.9 | – |
| COc1cc2c3cc1Oc1cc(ccc1O)C[C@@H]1c4c(cc(OC)c([O-])c4Oc4ccc(cc4)C[C@@H]3N(C)CC2)CC[N+]1(C)C | 0.37 | 3.73 | – | – | – | – | – | – | – | 2.2 | 0.45 | 3.4 | 2 | 0.58 |
| Nc1ccn([C@@H]2O[C@H](CO)[C@@H](O)[C@@H]2O)c(=O)n1 | 0.86 | 11.3 | – | – | – | – | – | – | – | 0.28 | 0.67 | 41.7 | 0.17 | – |
| C[C@@H](O)C1C(=O)N2C(C(=O)O)=C(SCCOC(N)=O)S[C@H]12 (stereo not given in full) | 0.24 | – | – | 0.21 | – | – | 0.14 | – | – | 0.67 | 0.3 | – | 0.8 | 0.35 |
| CC(C)NCC(O)COc1cccc2[nH]ccc12 (stereo not given) | 17 | – | – | – | – | – | 1.36 | – | – | 2.6 | 1.2 | – | 2.2 | – |
| CN/C(=C\[N+](=O)[O-])NCCSCc1ccc(CN(C)C)o1 | 1.65 | – | – | – | – | – | 2.87 | – | 1 | 2.1 | 1.2 | – | 2.1 | – |
| CC(=O)Nc1nnc(S(N)(=O)=O)s1 | – | – | – | – | – | – | 0.21 | 68 | 0.2 | 9.5 | 0.37 | 0.65 | – | 0.04 |
| Cc1cccc(C)c1NC(=O)C(C)N (stereo not given) | – | – | – | – | – | – | 5 | 37.8 | – | 14 | 1.8 | 2.2 | 12 | – |
| CCN(CC)CCNC(=O)c1ccc(NS(C)(=O)=O)cc1 | 1.4 | 9 | – | – | – | – | 2.08 | 25.6 | – | 3.7 | 0.82 | 3.7 | 3.8 | – |
| Nc1ncn([C@H]2C[C@H](O)[C@@H](CO)O2)c(=O)n1 | 0.85 | 8.6 | – | – | – | – | 1.8 | 7.9 | – | 0.59 | 4.6 | 130 | 0.58 | – |
| Nc1nc(C(=NO)C(=O)NC2C(=O)N3C(C(=O)O)=C(C=C4CCN(CC(F)(F)F)C4=O)CS[C@H]23)cs1 (stereo not given in full) | 0.18 | 2.7 | 0.16 | 0.12 | 0.77 | 0.05 | 0.15 | 0.95 | 0.025 | 4.8 | 0.11 | 0.38 | 3.8 | 0.043 |
| Cn1nnnc1SCC1=C(C(=O)O)N2C(=O)C(NC(=O)C(O)c3ccccc3)[C@H]2SC1 (stereo not given in full) | – | – | – | – | – | – | 0.25 | 21.8 | – | 0.75 | 0.16 | 3.6 | 0.75 | 0.25 |
| Nc1ccn([C@@H]2O[C@H](CO)[C@@H](O)C2(F)F)c(=O)n1 | 1.41 | 10.8 | 0.765 | 5.5 | 177 | – | 1 | 5 | 0.93 | 0.81 | 1.5 | 32 | 1 | 1 |
| COc1ccc2c3c1O[C@H]1[C@@H](O)C=C[C@H]4[C@@H](C2)N(C)CC[C@@]341 | – | – | – | – | – | – | – | – | 0.92 | 3.9 | 3.5 | 15 | 4 | 0.7 |
| Cc1nnc2n1-c1ccc(Cl)cc1C(c1ccccc1)=NC2 | – | – | – | – | – | – | 2.7 | 133 | 0.35 | 18 | 0.8 | 0.74 | 12 | – |
